pIC50: −log10 of the molar value.
Biological target: T1, phosphopantetheinyl transferase Sfp (Bacillus subtilis, UniProt P39135)
T1 sequence (P39135 1-224): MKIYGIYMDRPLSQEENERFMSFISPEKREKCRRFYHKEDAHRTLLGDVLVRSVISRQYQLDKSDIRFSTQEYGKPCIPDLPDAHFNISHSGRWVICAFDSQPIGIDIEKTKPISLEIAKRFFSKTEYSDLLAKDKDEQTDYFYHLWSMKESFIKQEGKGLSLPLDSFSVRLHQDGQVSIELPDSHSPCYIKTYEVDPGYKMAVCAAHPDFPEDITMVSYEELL
Assay: FRET-quench phosphopantetheinyl transferase assay
Type: biochemical

Structure (SMILES) | pIC50
N=C1Sc2ccccc2C2=NCCCN12 [PD 404,182] | 5.49
Clc1ccc(C(c2ccc(Cl)cc2)n2cc[n+](CC(OCc3ccc(Cl)cc3Cl)c3ccc(Cl)cc3Cl)c2)cc1 (centres unmarked) [calmidazolium chloride] | 4.70
